Test results reported in ChEMBL document CHEMBL2346533, “Structural effect of phenyl ring compared to thiadiazole based adamantyl-sulfonamides on carbonic anhydrase inhibition” (Bioorg Med Chem, 2013).

Tests used:
Carbonic anhydrase 9 = Carbonic anhydrase 9 (Homo sapiens, UniProt Q16790); assay: Inhibition of tumor-associated transmembrane human carbonic anhydrase-9 after 15 mins by Stopped-flow CO2 hydrase assay
Carbonic anhydrase 12 = Carbonic anhydrase 12 (Homo sapiens, UniProt O43570); assay: Inhibition of tumor-associated transmembrane human carbonic anhydrase-12 after 15 mins by Stopped-flow CO2 hydrase assay
Chain of Carbonic anhydrase 12 (O43570 whole entry, canonical isoform): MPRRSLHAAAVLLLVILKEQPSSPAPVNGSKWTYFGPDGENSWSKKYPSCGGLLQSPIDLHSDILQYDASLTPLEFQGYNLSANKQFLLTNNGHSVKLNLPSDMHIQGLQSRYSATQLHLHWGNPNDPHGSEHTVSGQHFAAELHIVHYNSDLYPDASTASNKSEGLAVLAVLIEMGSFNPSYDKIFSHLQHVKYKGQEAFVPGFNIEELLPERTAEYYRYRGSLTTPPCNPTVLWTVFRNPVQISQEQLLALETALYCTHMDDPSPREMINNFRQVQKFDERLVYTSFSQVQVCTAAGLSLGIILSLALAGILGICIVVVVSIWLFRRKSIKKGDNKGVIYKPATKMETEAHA

Carbonic anhydrase 3 = Carbonic anhydrase 3 (Homo sapiens, UniProt P07451); assay: Inhibition of human carbonic anhydrase-3 cytosolic isoform after 15 mins by Stopped-flow CO2 hydrase assay
Chain of Carbonic anhydrase 3 (P07451 whole entry, canonical isoform): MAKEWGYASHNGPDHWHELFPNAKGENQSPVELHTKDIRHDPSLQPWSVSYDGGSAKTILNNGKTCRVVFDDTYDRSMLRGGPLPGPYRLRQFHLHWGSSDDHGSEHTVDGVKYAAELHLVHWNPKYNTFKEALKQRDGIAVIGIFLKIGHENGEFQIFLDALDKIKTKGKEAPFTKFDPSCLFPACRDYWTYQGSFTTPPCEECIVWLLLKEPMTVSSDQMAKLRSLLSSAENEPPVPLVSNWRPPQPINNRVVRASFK

Carbonic anhydrase 1 = Carbonic anhydrase 1 (Homo sapiens, UniProt P00915); assay: Inhibition of human carbonic anhydrase-1 cytosolic isoform after 15 mins by Stopped-flow CO2 hydrase assay
Chain of Carbonic anhydrase 1 (P00915 whole entry, canonical isoform): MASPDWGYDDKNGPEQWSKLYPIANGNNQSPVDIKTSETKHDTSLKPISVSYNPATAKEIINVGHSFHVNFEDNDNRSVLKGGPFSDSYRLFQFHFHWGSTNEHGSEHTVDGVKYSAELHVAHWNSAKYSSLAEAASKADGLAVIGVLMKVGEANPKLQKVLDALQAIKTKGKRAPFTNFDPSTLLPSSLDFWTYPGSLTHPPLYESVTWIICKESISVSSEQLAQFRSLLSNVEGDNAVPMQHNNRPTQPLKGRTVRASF

| Structure (SMILES) | Ki (Carbonic anhydrase 9) [µM] | Ki (Carbonic anhydrase 12) [µM] | Ki (Carbonic anhydrase 3) [µM] | Ki (Carbonic anhydrase 1) [µM] |
| --- | --- | --- | --- | --- |
| NS(=O)(=O)c1ccc(NC(=O)CC23CC4CC(CC(C4)C2)C3)cc1 | 0.0565 | 0.0094 | > 10000 | – |
| NS(=O)(=O)c1nnc(NC(=O)CC23CC4CC(CC(C4)C2)C3)s1 | – | – | 1400 | 0.34 |
| NS(=O)(=O)c1ccc(NC(=O)C23CC4CC(CC(C4)C2)C3)cc1 | 0.0513 | 0.0071 | > 10000 | – |
| NS(=O)(=O)c1nnc(NC(=O)C23CC4CC(CC(C4)C2)C3)s1 | – | – | 1200 | 0.85 |
